The values below come from patent publication US9981906B2, “Trans-clomiphene metabolites and uses thereof” (Repros Therapeutics Inc., priority 2011, dated 2018).

For data set [1] the following is noted: following a single dose; cited from earlier work.
The subject of data set [2] is cryopreserved hepatocytes from cynomolgus monkey. As to the kind of experiment: Metabolite profile of Androxal in cryopreserved cynomolgus monkey hepatocytes. Type of data set: in vitro ADME. The settings on record: LC/MS. As to the method: (§1) A study was conducted to determine the metabolic profile of Androxal® in cryopreserved hepatocytes from Sprague-Dawley rat, Beagle dog, cynomolgus monkey, and human. The liver is the main site of drug metabolism and the full complement of hepatic drug metabolizing enzymes (including liver enzymes of the CYP P450 family) are maintained within the intact cell. Isolated liver hepatocytes constitute a physiologically relevant experimental model for the evaluation of liver-related drug properties such as metabolism. Cyropreservation of the hepatocytes greatly enhances their availability for studies.
(§2) Primary hepatocytes isolated from several donors for each animal species and five human donors were pooled according to species and cryopreserved. The hepatocytes were thawed, subjected to Percoll density gradient centrifugation to remove debris and counted to determine yield. Viability was measured using Trypan blue exclusion. The hepatocytes were diluted with CYP assay buffer (Krebs-Hensleit Buffer) to prepare a 2× cell suspension of 2.0×10^6 viable cells/ml. Aliquots of the 2× hepatocyte suspension (0.5 ml containing 1.0×10^6 cells) were transferred to appropriate wells for a final 1× cell density of 1.0×10^6 cells/well. All incubations were conducted at 37±1° C., 95% air/5% CO2, and saturating humidity in 12-well uncoated culture plates. […] The cultures were incubated for 1 and 4 hours. The sample size was N=2 replicates.
(§3) Matrix control samples were included as a source of background matrix components to aid in metabolite identification. Equal volumes of 2× hepatocyte suspension and CYP assay buffer without Androxal® were combined and incubated for 4 hours.
(§4) Chemical degradation control samples were included to evaluate the possibility of chemical degradation of Androxal® in the absence of cells. Equal volumes of 2× Androxal® dosing solution (6 and 60 μM) and CYP buffer were combined and incubated for 1 and 4 hours.
(§5) The incubations were terminated as follows: Metabolic positive control incubations were terminated by adding an equal volume of methanol. All other incubations were terminated by placing the plates on ice. The contents of each well were mixed thoroughly and divided into five cryovials. An equal volume of organic solvent was added to one cryovial. The samples were either immediately analyzed or stored in cryovials at −70°±10 C until analysis.
(§6) All samples were analyzed by reverse-phase HPLC. A UV profile of the samples was obtained followed by liquid chromatography-mass spectrometry (LC/MS) analysis using a Micromass® Q-Tof-2 mass spectrometer capable of conducting accurate mass measurement. Preliminary metabolite identification was aided by the use of Metabolynx® software.
(§7) The relative amounts of Androxal and its metabolites after 1 and 4 hour incubations are reported below at Tables 1-4.

Data set [3] deals with cryopreserved hepatocytes from Sprague-Dawley rat. As to the kind of experiment: Metabolite profile of Androxal in cryopreserved Sprague-Dawley rat hepatocytes. The class given is in vitro ADME. Particulars: LC/MS. Here is the method: as §1, §2, §3, §4, §5, §6, §7
The subject of data set [4] is cryopreserved hepatocytes from human. As to the kind of experiment: Metabolite profile of Androxal in cryopreserved human hepatocytes. Type of data set: in vitro ADME. Particulars: LC/MS. Here is the method: as §1, §2, §3, §4, §5, §6, §7
Data set [5] deals with cryopreserved hepatocytes from Beagle dog. Nature of the data set: Metabolite profile of Androxal in cryopreserved Beagle dog hepatocytes. The class given is in vitro ADME. The settings on record: LC/MS. Here is the method:
as §1, §2, §3
Chemical degradation control samples were included to evaluate the possibility of chemical degradation of Androxal® in the absence of cells. […]
as §5, §6, §7

The mark [6] stands for this setting: incubations containing 3 μM Androxal for 1 hour.
Where [7] appears, read: incubations containing 30 μM Androxal for 4 hours.
Setting [8] is: incubations containing 30 mM Androxal for 1 hour.
[9] abbreviates: incubations containing 3 μM Androxal for 4 hours.

With `CCN(CC)CCOc1ccc(/C(=C(/Cl)c2ccccc2)c2ccccc2)cc1` (single isomer, unassigned) [cis isomer, cis-clomiphene], the residual blood levels entry in data set [1] was “in excess of one month”.
As to `CCNCCOc1ccc(/C(=C(/Cl)c2ccccc2)c2ccccc2)cc1` [C24H24NOCl, N-desethyl-trans-clomiphene], the “relative amount, Cyno. monkey” value in data set [2] (setting [6]) is listed as 22.3; in data set [2] (setting [7]) it was 2175.0; in data set [2] (setting [8]), 1029.8. Moreover, the “relative amount, SD Rat” value turned out to be 673.8 in data set [3] (setting [7]) and 336.6 in data set [3] (setting [8]). Also, the “relative amount, Human” value in data set [4] (setting [6]) came out at 48.3; in data set [4] (setting [9]), 43.4; in data set [4] (setting [7]), 1262.4; in data set [4] (setting [8]) it was 699.8. Besides, the “relative amount, Beagle dog” value in data set [5] (setting [6]) was determined as 25.9; in data set [5] (setting [9]), 18.6; in data set [5] (setting [7]) it was 723.5.
Regarding `CCN(CC)CCOc1ccc(/C(=C(\Cl)c2ccccc2)c2ccccc2)cc1` [C26H28ClNO, trans-clomiphene], the “relative amount, Cyno. monkey” value is listed as 279.1 in data set [2] (setting [6]), 84.2 in data set [2] (setting [9]), 2828.5 in data set [2] (setting [7]) and 3166.4 in data set [2] (setting [8]). Moreover, the “relative amount, SD Rat” value in data set [3] (setting [6]) is reported as 240.0; in data set [3] (setting [9]), 182.5; in data set [3] (setting [7]), 3123.3; in data set [3] (setting [8]), 3166.8. For the same molecule, the “relative amount, Human” value was determined as 625.8 in data set [4] (setting [6]), 285.4 in data set [4] (setting [9]), 4012.5 in data set [4] (setting [7]) and 4297.8 in data set [4] (setting [8]). In addition, the “relative amount, Beagle dog” value in data set [5] (setting [6]) is on record as 148.9; in data set [5] (setting [9]), 103.2; in data set [5] (setting [7]) it was 4989.3; in data set [5] (setting [8]) it was 6227.3.
Consider `CCN(CC)CCOc1ccc(/C(=C(/Cl)c2ccccc2)c2ccc(O)cc2)cc1` [C26H28NO2Cl, 4-hydroxy-trans-clomiphene], for which the “relative amount, Cyno. monkey” value in data set [2] (setting [6]) is on record as 239.4; in data set [2] (setting [9]), 43.4. Besides, the “relative amount, SD Rat” value in data set [3] (setting [6]) came to 100.9; in data set [3] (setting [9]), 31.1; in data set [3] (setting [8]) it was 992.7. For the same molecule, the “relative amount, Human” value in data set [4] (setting [6]) is given as 240.3; in data set [4] (setting [9]), 247.0. Further, the “relative amount, Beagle dog” value was determined as 218.8 in data set [5] (setting [6]), 103.4 in data set [5] (setting [9]) and 1535.2 in data set [5] (setting [8]).
As to `CCN(CC)CCOc1ccc(C(c2ccc(O)c(O)c2)C(Cl)c2ccccc2)cc1` (centres unmarked) [C26H30NO3Cl], the “relative amount, Beagle dog” value in data set [5] (incubations containing 30 μM Androxal for 4 hours, retention time 22.7) worked out at 65.9; in data set [5] (incubations containing 30 μM Androxal for 4 hours, retention time 22.95), 43.7.
